Holding throughout (assay type): cell-based
The target of one assay is T1, human TLR7 (Homo sapiens, UniProt Q9NYK1).
T1 construct: host or cells: HEK-Blue cells (HEK293-derived reporter line)
T1 sequence (Q9NYK1 27-1049): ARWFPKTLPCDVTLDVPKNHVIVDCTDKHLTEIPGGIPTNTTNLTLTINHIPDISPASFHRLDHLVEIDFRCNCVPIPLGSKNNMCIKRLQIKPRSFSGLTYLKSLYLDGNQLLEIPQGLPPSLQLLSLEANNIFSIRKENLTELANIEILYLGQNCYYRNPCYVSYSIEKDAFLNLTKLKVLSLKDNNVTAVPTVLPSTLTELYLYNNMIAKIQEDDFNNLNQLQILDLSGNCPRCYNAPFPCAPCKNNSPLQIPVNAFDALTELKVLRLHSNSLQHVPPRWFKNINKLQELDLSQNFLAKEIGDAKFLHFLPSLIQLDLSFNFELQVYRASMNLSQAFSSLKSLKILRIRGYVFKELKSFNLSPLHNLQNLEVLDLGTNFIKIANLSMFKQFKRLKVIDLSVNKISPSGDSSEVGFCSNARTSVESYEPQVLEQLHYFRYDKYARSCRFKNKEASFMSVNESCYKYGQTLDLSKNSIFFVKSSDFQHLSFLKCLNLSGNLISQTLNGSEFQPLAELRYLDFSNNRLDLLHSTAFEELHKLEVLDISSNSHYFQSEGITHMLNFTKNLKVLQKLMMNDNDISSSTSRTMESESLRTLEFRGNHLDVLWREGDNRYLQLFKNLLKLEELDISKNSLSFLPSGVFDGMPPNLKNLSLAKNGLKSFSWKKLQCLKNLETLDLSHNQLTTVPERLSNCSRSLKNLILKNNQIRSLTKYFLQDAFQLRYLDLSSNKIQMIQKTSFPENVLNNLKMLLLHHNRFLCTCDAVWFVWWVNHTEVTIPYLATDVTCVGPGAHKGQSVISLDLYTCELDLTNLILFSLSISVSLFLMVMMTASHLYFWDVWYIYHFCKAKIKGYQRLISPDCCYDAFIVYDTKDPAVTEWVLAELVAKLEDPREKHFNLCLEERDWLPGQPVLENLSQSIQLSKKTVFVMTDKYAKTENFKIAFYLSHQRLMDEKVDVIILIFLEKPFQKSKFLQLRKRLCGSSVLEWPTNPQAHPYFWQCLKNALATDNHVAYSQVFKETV
The assay can be described thus: TLR7 inhibition reporter assay (HEK-Blue cells, SEAP reporter, gardiquimod stimulation). Conditions: HEK-Blue cells overexpressing human TLR7, SEAP reporter, gardiquimod 7.5 μM. In short, it runs like this: (§1)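 Read-out is SEAP activity in HEK-Blue detection medium after 22 h at 37 °C, converted to percent inhibition against agonist-plus-DMSO and reference-inhibitor controls. Cells saw compound (0.05 nM–50 μM, 30 min, room temperature) before gardiquimod 7.5 μM, R848 15.9 μM or ODN2006 5 nM for TLR7, TLR8 and TLR9, respectively.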

The next assay concerns the target T2, human TLR8 (Homo sapiens, UniProt Q9NR97).
T2 construct: host or cells: HEK-Blue cells (HEK293-derived reporter line)
T2 sequence (Q9NR97 27-1041): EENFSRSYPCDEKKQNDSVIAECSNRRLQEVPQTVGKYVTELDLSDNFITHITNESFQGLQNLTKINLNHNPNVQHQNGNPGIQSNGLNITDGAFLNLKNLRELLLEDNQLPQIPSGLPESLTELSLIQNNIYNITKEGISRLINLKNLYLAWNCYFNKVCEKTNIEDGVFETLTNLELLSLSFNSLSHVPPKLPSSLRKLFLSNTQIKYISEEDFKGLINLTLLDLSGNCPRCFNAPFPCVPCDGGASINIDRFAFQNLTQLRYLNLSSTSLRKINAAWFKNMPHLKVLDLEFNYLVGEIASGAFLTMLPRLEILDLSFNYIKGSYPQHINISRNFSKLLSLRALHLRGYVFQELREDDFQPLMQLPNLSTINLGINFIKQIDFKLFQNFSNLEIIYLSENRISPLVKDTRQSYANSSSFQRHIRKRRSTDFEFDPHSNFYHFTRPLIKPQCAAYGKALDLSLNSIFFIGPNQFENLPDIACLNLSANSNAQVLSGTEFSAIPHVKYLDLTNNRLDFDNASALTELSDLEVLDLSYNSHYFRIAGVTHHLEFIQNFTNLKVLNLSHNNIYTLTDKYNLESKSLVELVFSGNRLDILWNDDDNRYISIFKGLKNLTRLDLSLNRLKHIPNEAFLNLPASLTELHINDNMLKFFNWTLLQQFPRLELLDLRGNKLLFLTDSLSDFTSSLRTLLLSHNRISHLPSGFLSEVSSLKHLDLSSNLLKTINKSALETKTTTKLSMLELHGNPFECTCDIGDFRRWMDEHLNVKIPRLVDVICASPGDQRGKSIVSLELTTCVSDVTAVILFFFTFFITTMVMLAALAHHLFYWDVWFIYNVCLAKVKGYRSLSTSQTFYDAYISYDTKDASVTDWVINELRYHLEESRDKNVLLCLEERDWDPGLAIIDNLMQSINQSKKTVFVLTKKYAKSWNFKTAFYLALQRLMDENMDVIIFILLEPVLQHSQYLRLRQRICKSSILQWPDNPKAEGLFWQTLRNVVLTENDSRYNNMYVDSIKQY
The assay can be described thus: TLR8 inhibition reporter assay (HEK-Blue cells, SEAP reporter, R848 stimulation). The conditions noted are these: HEK-Blue cells overexpressing human TLR8, SEAP reporter, R848 15.9 μM. Put shortly: as §1

For the next assay, the target named is T3, human TLR9 (Homo sapiens, UniProt Q9NR96).
T3 construct: host or cells: HEK-Blue cells (HEK293-derived reporter line)
T3 sequence (Q9NR96 26-1032): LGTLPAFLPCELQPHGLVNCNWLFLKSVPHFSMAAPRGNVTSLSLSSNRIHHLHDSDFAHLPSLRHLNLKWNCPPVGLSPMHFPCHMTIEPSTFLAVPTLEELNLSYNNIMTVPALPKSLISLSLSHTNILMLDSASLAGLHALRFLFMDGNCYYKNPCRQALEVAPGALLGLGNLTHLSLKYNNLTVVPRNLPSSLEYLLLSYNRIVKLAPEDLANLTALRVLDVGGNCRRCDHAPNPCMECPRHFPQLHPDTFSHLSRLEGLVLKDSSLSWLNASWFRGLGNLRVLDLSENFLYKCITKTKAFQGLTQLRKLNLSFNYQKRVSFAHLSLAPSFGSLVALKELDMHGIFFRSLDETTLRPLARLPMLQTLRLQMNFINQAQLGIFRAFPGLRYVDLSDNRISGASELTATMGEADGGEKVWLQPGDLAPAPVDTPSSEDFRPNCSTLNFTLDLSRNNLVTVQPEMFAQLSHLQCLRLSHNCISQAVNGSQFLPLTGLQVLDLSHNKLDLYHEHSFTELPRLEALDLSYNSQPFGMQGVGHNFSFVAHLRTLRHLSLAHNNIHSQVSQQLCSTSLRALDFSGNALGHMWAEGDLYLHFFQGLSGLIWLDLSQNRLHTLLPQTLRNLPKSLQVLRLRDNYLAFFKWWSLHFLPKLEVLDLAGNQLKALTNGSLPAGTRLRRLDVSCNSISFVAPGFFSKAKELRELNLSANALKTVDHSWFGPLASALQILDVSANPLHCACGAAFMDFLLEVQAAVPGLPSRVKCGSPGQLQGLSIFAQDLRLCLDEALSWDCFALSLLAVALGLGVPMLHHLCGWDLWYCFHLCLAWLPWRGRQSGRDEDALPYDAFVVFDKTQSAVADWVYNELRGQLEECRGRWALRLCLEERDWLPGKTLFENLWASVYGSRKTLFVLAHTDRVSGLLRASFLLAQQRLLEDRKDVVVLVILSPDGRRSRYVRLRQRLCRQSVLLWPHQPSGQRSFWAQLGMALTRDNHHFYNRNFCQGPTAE
The assay can be described thus: TLR9 inhibition reporter assay (HEK-Blue cells, SEAP reporter, ODN2006 stimulation). Conditions: HEK-Blue cells overexpressing human TLR9, SEAP reporter, ODN2006 5 nM. Put shortly:
as §1

In the case of `CC(C)c1c(-c2ccnc3[nH]ncc23)[nH]c2ccc(C3CCN(C(=O)c4cscn4)CC3)cc12` [Example 611, (4-(3-isopropyl-2-(1H-pyrazolo[3,4-b]pyridin-4-yl)-1H-indol-5-yl)piperidin-1-yl)(thiazol-4-yl)methanone], the figures for the IC50 on human TLR7, against human TLR8 and on human TLR9 were less than 100 nM, 100 to 1000 nM and 1000 to 50000 nM, respectively.

Consider `CC(C)c1c(-c2ccc3nccn3c2)[nH]c2ccc(C3CCN(C)CC3)cc12` [Example 947, 6-(3-isopropyl-5-(1-methylpiperidin-4-yl)-1H-indol-2-yl)imidazo[1,2-a]pyridine], for which the IC50 on human TLR7 was less than 100 nM; against human TLR8, less than 100 nM; against human TLR9, 100 to 1000 nM.

For the compound `Cc1nnn2ccc(-c3[nH]c4ccc(C5CCN(C6CCS(=O)(=O)CC6)CC5)cc4c3C(C)C)cc12` [Example 792, 4-(4-(3-isopropyl-2-(3-methyl-[1,2,3]triazolo[1,5-a]pyridin-5-yl)-1H-indol-5-yl)piperidin-1-yl)tetrahydro-2H-thiopyran 1,1-dioxide], the figures for the IC50 against human TLR7, on human TLR8 and at human TLR9 were less than 100 nM, less than 100 nM and 1000 to 50000 nM, respectively.

Consider `CNC(=O)CN1CCC(c2ccc3[nH]c(-c4ccc(C#N)c5ncccc45)c(C(C)C)c3c2)CC1` [Example 371, 2-(4-(2-(8-cyanoquinolin-5-yl)-3-isopropyl-1H-indol-5-yl)piperidin-1-yl)-N-methylacetamide], for which the IC50 is less than 100 nM against human TLR7, less than 100 nM at human TLR8 and 1000 to 50000 nM on human TLR9.

Take `Cc1cc2cc(-c3[nH]c4ccc(C5CCN(CC(=O)N(C)C)CC5)cc4c3C(C)C)cc(CC(C)C)n2n1` [Example 393, 2-(4-(2-(7-isobutyl-2-methylpyrazolo[1,5-a]pyridin-5-yl)-3-isopropyl-1H-indol-5-yl)piperidin-1-yl)-N,N-dimethylacetamide]: the values for the IC50 on human TLR7, against human TLR8 and against human TLR9 were greater than 3130 nM, greater than 3130 nM and 1000 to 50000 nM, respectively.

On to `Cc1cnc2[nH]ncc2c1-c1[nH]c2ccc(C3CCNCC3)cc2c1C(C)C` [Example 46, 4-(3-isopropyl-5-(piperidin-4-yl)-1H-indol-2-yl)-5-methyl-1H-pyrazolo[3,4-b]pyridine], for which the figures for the IC50 at human TLR7, at human TLR8 and on human TLR9 were less than 100 nM, less than 100 nM and 1000 to 50000 nM, respectively.

Turning to `Cc1cc(-c2[nH]c3ccc(C4CCN(CC(=O)N(C)C)CC4)cc3c2C(C)C)nn2ccnc12` [Example 447, 2-(4-(3-isopropyl-2-(8-methylimidazo[1,2-b]pyridazin-6-yl)-1H-indol-5-yl)piperidin-1-yl)-N,N-dimethylacetamide], the 50% inhibitory concentration (IC50) is less than 100 nM at human TLR7, less than 100 nM against human TLR8 and 1000 to 50000 nM against human TLR9.

With `Cc1cc(-c2[nH]c3ccc(C4CCN(CCCS(C)(=O)=O)CC4)cc3c2C(C)C)cn2nnnc12` [Example 787, 6-(3-isopropyl-5-(1-(3-(methylsulfonyl)propyl)piperidin-4-yl)-1H-indol-2-yl)-8-methyltetrazolo[1,5-a]pyridine], the IC50 against human TLR7 was less than 100 nM; on human TLR8, less than 100 nM; on human TLR9, 1000 to 50000 nM.

`Cc1c(-c2ccnn3ccnc23)[nH]c2ccc(C3CCN(C4CCN(C(C)C)CC4)CC3)cc12` [Example 807, 8-(5-(1′-isopropyl-[1,4′-bipiperidin]-4-yl)-3-methyl-1H-indol-2-yl)imidazo[1,2-b]pyridazine]: the figures for the IC50 on human TLR7, against human TLR8 and against human TLR9 were 1000 to 50000 nM, 1000 to 50000 nM and 100 to 1000 nM, respectively.

As for `CC(C)c1c(-c2ccn3nnnc3c2)[nH]c2ccc(C3CCNCC3)cc12` [Example 82, 7-(3-isopropyl-5-(piperidin-4-yl)-1H-indol-2-yl)tetrazolo[1,5-a]pyridine], the IC50 against human TLR7 was less than 100 nM; at human TLR8, 100 to 1000 nM; against human TLR9, 1000 to 50000 nM.

Turning to `Cc1cc(-c2[nH]c3ccc(C4CCNCC4)cc3c2C(C)C)nc2scnc12` [Example 101, 5-(3-isopropyl-5-(piperidin-4-yl)-1H-indol-2-yl)-7-methylthiazolo[5,4-b]pyridine], the results for the IC50 against human TLR7, against human TLR8 and at human TLR9 were less than 100 nM, less than 100 nM and 1000 to 50000 nM, respectively.

In the case of `CC(C)c1c(-c2cc(F)c3nccn3c2)[nH]c2ccc(C3CCNCC3)cc12` [Example 118, 8-fluoro-6-(3-isopropyl-5-(piperidin-4-yl)-1H-indol-2-yl)imidazo[1,2-a]pyridine], the IC50 on human TLR7 is less than 100 nM; against human TLR8, less than 100 nM; at human TLR9, 100 to 1000 nM.

Take `CC(C)c1c(-c2ccnc3[nH]cnc23)[nH]c2ccc(C3CCNCC3)cc12` [Example 61, 7-(3-isopropyl-5-(piperidin-4-yl)-1H-indol-2-yl)-3H-imidazo[4,5-b]pyridine]: the values for the IC50 against human TLR7, against human TLR8 and on human TLR9 were less than 100 nM, less than 100 nM and 100 to 1000 nM, respectively.
